Assay: Adverse event monitoring, phase I single dose
Method: Safety assessments included adverse event (AE) monitoring, vital signs monitoring (systolic and diastolic blood pressure, pulse rate), electrocardiography, physical examinations and laboratory assessments (haematology, clinical chemistry and urinalysis).
The pharmacokinetic analysis set included all participants in the safety analysis set with evaluable pharmacokinetic data and no major protocol deviations. Analyses were performed using Statistical Analysis System (SAS) software, version 9.4. Descriptive statistics were not presented if there were fewer than 3 values available.

C[C@@H](N)c1cc(Cl)ccc1Cn1c(=S)[nH]c(=O)c2[nH]ccc21 [AZD4831]
4/30: maculopapular rash (moderate intensity), participants (all participants receiving AZD4831)
3 (50.0) n (%): Any AE (45 mg fasted n = 6) | Any AE (135 mg fasted n = 6)
13.3%: maculopapular rash (moderate intensity), participants (all participants receiving AZD4831, n = 30)
4 (13.3) n (%): Headache (pooled AZD4831 fasted n = 30) | Rash maculopapular (pooled AZD4831 fasted n = 30)
1 (16.7) n (%): Oropharyngeal pain (5 mg fasted n = 6) | Restlessness (5 mg fasted n = 6) | Epistaxis (15 mg fasted n = 6) | Headache (15 mg fasted n = 6) | Gastroenteritis (45 mg fasted n = 6) | Rash maculopapular (45 mg fasted n = 6) | Headache (135 mg fasted n = 6) | Nasopharyngitis (135 mg fasted n = 6) | Rash maculopapular (135 mg fasted n = 6) | Oropharyngeal pain (405 mg fasted n = 6) | Rhinitis (405 mg fasted n = 6)
12 (40.0) n (%): Any AE (pooled AZD4831 fasted n = 30)
2 (33.3) n (%): Any AE (5 mg fasted n = 6) | Any AE (15 mg fasted n = 6) | Headache (45 mg fasted n = 6) | Any AE (405 mg fasted n = 6) | Rash maculopapular (405 mg fasted n = 6)
5 to 9 days: duration of maculopapular rash (in vivo)
1 (3.3) n (%): Epistaxis (pooled AZD4831 fasted n = 30) | Gastroenteritis (pooled AZD4831 fasted n = 30) | Nasopharyngitis (pooled AZD4831 fasted n = 30) | Restlessness (pooled AZD4831 fasted n = 30) | Rhinitis (pooled AZD4831 fasted n = 30)
no serious AEs or deaths occurred: serious AEs or deaths (whole study)
0 n (%): Epistaxis (5 mg fasted n = 6) | Gastroenteritis (5 mg fasted n = 6) | Headache (5 mg fasted n = 6) | Nasopharyngitis (5 mg fasted n = 6) | Rash maculopapular (5 mg fasted n = 6) | Rhinitis (5 mg fasted n = 6) | Gastroenteritis (15 mg fasted n = 6) | Nasopharyngitis (15 mg fasted n = 6) | Oropharyngeal pain (15 mg fasted n = 6) | Rash maculopapular (15 mg fasted n = 6) | Restlessness (15 mg fasted n = 6) | Rhinitis (15 mg fasted n = 6) | Epistaxis (45 mg fasted n = 6) | Nasopharyngitis (45 mg fasted n = 6) | Oropharyngeal pain (45 mg fasted n = 6) | Restlessness (45 mg fasted n = 6) | Rhinitis (45 mg fasted n = 6) | Any AE (45 mg fed n = 4) | Epistaxis (45 mg fed n = 4) | Gastroenteritis (45 mg fed n = 4) | Headache (45 mg fed n = 4) | Nasopharyngitis (45 mg fed n = 4) | Oropharyngeal pain (45 mg fed n = 4) | Rash maculopapular (45 mg fed n = 4) | Restlessness (45 mg fed n = 4) | Rhinitis (45 mg fed n = 4) | Epistaxis (135 mg fasted n = 6) | Gastroenteritis (135 mg fasted n = 6) | Oropharyngeal pain (135 mg fasted n = 6) | Restlessness (135 mg fasted n = 6) | Rhinitis (135 mg fasted n = 6) | Epistaxis (405 mg fasted n = 6) | Gastroenteritis (405 mg fasted n = 6) | Headache (405 mg fasted n = 6) | Nasopharyngitis (405 mg fasted n = 6) | Restlessness (405 mg fasted n = 6)
2 (6.7) n (%): Oropharyngeal pain (pooled AZD4831 fasted n = 30)
7 to 9 days: time of report of maculopapular rash after dosing (in vivo)

Reference: publication PMC6422671 (British Journal of Clinical Pharmacology, 2019)
